Measured values: patent US12435031B2, “Compound with broad-spectrum antibacterial activity and its antibacterial composition” (CHINA AGRICULTURAL UNIVERSITY, priority 2023, dated 2025)
Converted amounts (≈) assume the structure as drawn. Where two headings read alike, the source gives them in different places.

Test system: Clostridium perfringens
Test: microbe, parasite or virus in culture
Assay type: cell-based
[1] = Clostridium perfringens, read-out: MIC value against Clostridium perfringens, strain A3-1 (A-type)
[2] = Clostridium perfringens, read-out: MIC value against Clostridium perfringens, strain A3-2 (A-type)
[3] = Clostridium perfringens, read-out: MIC value against Clostridium perfringens, strain A57-1 (A-type)
[4] = Clostridium perfringens, read-out: MIC value against Clostridium perfringens, strain B4 (B-type)
[5] = Clostridium perfringens, read-out: MIC value against Clostridium perfringens, strain B5 (B-type)
[6] = Clostridium perfringens, read-out: MIC value against Clostridium perfringens, strain C3 (C-type)
[7] = Clostridium perfringens, read-out: MIC value against Clostridium perfringens, strain C8 (C-type)
[8] = Clostridium perfringens, read-out: MIC value against Clostridium perfringens, strain C59-1 (C-type)
[9] = Clostridium perfringens, read-out: MIC value against Clostridium perfringens, strain D14B (D-type)
[10] = Clostridium perfringens, read-out: MIC value against Clostridium perfringens, strain F5-2 (F-type)
[11] = Clostridium perfringens, read-out: MIC value against Clostridium perfringens, strain F6-1 (F-type)
[12] = Clostridium perfringens, read-out: MIC value against Clostridium perfringens, strain F6-2 (F-type)
[13] = Clostridium perfringens, read-out: MIC value against Clostridium perfringens, strain F6-2-1 (F-type)
[14] = Clostridium perfringens, read-out: MIC value against Clostridium perfringens, strain F6-2-2 (F-type)
[15] = Clostridium perfringens, read-out: MIC value against Clostridium perfringens, strain F7-1 (F-type)
[16] = Clostridium perfringens, read-out: MIC value against Clostridium perfringens, strain F8-1 (F-type)
[17] = Clostridium perfringens, read-out: MIC value against Clostridium perfringens, strain H12-1 (H-type)
[18] = Clostridium perfringens, read-out: MIC value against Clostridium perfringens, strain H12-2 (H-type)
[19] = Clostridium perfringens, read-out: MIC value against Clostridium perfringens, strain H13-1 (H-type)
[20] = Clostridium perfringens, read-out: MIC value against Clostridium perfringens, strain H14-1 (H-type)
[21] = Clostridium perfringens, read-out: MIC value against Clostridium perfringens, strain H14-2 (H-type)
[22] = Clostridium perfringens, read-out: MIC value against Clostridium perfringens, strain H14-4 (H-type)
[23] = Clostridium perfringens, read-out: MIC value against Clostridium perfringens, strain H15-1 (H-type)
[24] = Clostridium perfringens, read-out: MIC value against Clostridium perfringens, strain H15-2 (H-type)
[25] = Clostridium perfringens, read-out: MIC value against Clostridium perfringens, strain H15-3 (H-type)
[26] = Clostridium perfringens, read-out: MIC value against Clostridium perfringens, strain H16 (H-type)

Row | Compound | MIC [1] [µg/mL] | MIC [2] [µg/mL] | MIC [3] [µg/mL] | MIC [4] [µg/mL] | MIC [5] [µg/mL] | MIC [6] [µg/mL] | MIC [7] [µg/mL] | MIC [8] [µg/mL] | MIC [9] [µg/mL] | MIC [10] [µg/mL] | MIC [11] [µg/mL] | MIC [12] [µg/mL] | MIC [13] [µg/mL] | MIC [14] [µg/mL] | MIC [15] [µg/mL] | MIC [16] [µg/mL] | MIC [17] [µg/mL] | MIC [18] [µg/mL] | MIC [19] [µg/mL] | MIC [20] [µg/mL] | also measured
1 | CC[C@H]1OC(=O)C[C@@H](O)[C@H](C)[C@@H](O[C@@H]2O[C@H](C)[C@@H](O)[C@H](N(C)C)[C@H]2O)[C@@H](CCN2C[C@H](C)C[C@H](C)C2)C[C@@H](C)C(=O)/C=C/C(C)=C/[C@@H]1CO[C@@H]1O[C@H](C)[C@@H](O)[C@@H](OC)[C@H]1OC [TMS, Tilmicosin] | 4 (≈ 4.6 µM) | 2 (≈ 2.3 µM) | 4 (≈ 4.6 µM) | > 128 | > 128 | > 128 | > 128 | 2 (≈ 2.3 µM) | 128 (≈ 147 µM) | 128 (≈ 147 µM) | 128 (≈ 147 µM) | 128 (≈ 147 µM) | > 128 | 128 (≈ 147 µM) | 64 (≈ 73.6 µM) | 128 (≈ 147 µM) | 4 (≈ 4.6 µM) | 4 (≈ 4.6 µM) | 4 (≈ 4.6 µM) | 128 (≈ 147 µM) | MIC50 (Clostridium perfringens): 128 µg/mL (≈ 147 µM); MIC90 (Clostridium perfringens): > 128 µg/mL; MIC [21]: 128 µg/mL (≈ 147 µM); MIC [22]: 128 µg/mL (≈ 147 µM); MIC [23]: 4 µg/mL (≈ 4.6 µM); MIC [24]: 128 µg/mL (≈ 147 µM); MIC [25]: 4 µg/mL (≈ 4.6 µM); MIC [26]: 128 µg/mL (≈ 147 µM)
2 | C[C@H]1c2cccc(O)c2C(=O)C2=C(O)[C@]3(O)C(=O)C(C(N)=O)=C(O)[C@@H](N(C)C)[C@@H]3[C@@H](O)[C@@H]21 [DOX, Doxycycline] | 8 (≈ 18 µM) | 8 (≈ 18 µM) | ≤ 0.25 | 2 (≈ 4.5 µM) | 8 (≈ 18 µM) | 16 (≈ 36 µM) | ≤ 0.25 | ≤ 0.25 | 1 (≈ 2.25 µM) | 4 (≈ 9 µM) | 32 (≈ 72 µM) | 16 (≈ 36 µM) | 16 (≈ 36 µM) | 16 (≈ 36 µM) | 8 (≈ 18 µM) | 16 (≈ 36 µM) | 4 (≈ 9 µM) | 4 (≈ 9 µM) | 8 (≈ 18 µM) | 8 (≈ 18 µM) | MIC50 (Clostridium perfringens): 8 µg/mL (≈ 18 µM); MIC90 (Clostridium perfringens): 16 µg/mL (≈ 36 µM); MIC [21]: 8 µg/mL (≈ 18 µM); MIC [22]: 4 µg/mL (≈ 9 µM); MIC [23]: 16 µg/mL (≈ 36 µM); MIC [24]: 16 µg/mL (≈ 36 µM); MIC [25]: 8 µg/mL (≈ 18 µM); MIC [26]: 8 µg/mL (≈ 18 µM)
3 | CO/N=C(\C(=O)N[C@@H]1C(=O)N2C(C(=O)O)=C(CSC(=O)c3ccco3)CS[C@H]12)c1csc(N)n1 [CEF, Ceftiofur] | ≤ 0.25 | ≤ 0.25 | ≤ 0.25 | ≤ 0.25 | ≤ 0.25 | 1 (≈ 1.91 µM) | ≤ 0.25 | ≤ 0.25 | ≤ 0.25 | ≤ 0.25 | ≤ 0.25 | ≤ 0.25 | ≤ 0.25 | ≤ 0.25 | ≤ 0.25 | ≤ 0.25 | ≤ 0.25 | ≤ 0.25 | ≤ 0.25 | ≤ 0.25 | MIC [21]: ≤ 0.25 µg/mL; MIC [22]: ≤ 0.25 µg/mL; MIC [23]: ≤ 0.25 µg/mL; MIC [24]: ≤ 0.25 µg/mL; MIC [25]: ≤ 0.25 µg/mL; MIC [26]: ≤ 0.25 µg/mL
4 | C=C[C@]1(C)C[C@@H](OC(=O)CSCCN(CC)CC)[C@]2(C)[C@H](C)CC[C@]3(CCC(=O)[C@H]32)[C@@H](C)[C@@H]1O [TIA, Tiamulin] | 0.5 (≈ 1.01 µM) | 0.5 (≈ 1.01 µM) | 4 (≈ 8.1 µM) | 4 (≈ 8.1 µM) | 0.5 (≈ 1.01 µM) | 8 (≈ 16.2 µM) | 0.5 (≈ 1.01 µM) | ≤ 0.25 | 8 (≈ 16.2 µM) | 0.5 (≈ 1.01 µM) | 0.5 (≈ 1.01 µM) | 0.5 (≈ 1.01 µM) | 0.5 (≈ 1.01 µM) | 0.5 (≈ 1.01 µM) | 4 (≈ 8.1 µM) | 4 (≈ 8.1 µM) | 0.5 (≈ 1.01 µM) | ≤ 0.25 | 4 (≈ 8.1 µM) | 8 (≈ 16.2 µM) | MIC90 (Clostridium perfringens): 8 µg/mL (≈ 16.2 µM); MIC50 (Clostridium perfringens (n=26), unit as printed for tiamulin): 0.5 µg/mL (≈ 1.01 µM); MIC [21]: 8 µg/mL (≈ 16.2 µM); MIC [22]: 4 µg/mL (≈ 8.1 µM); MIC [23]: ≤ 0.25 µg/mL; MIC [24]: 4 µg/mL (≈ 8.1 µM); MIC [25]: 4 µg/mL (≈ 8.1 µM); MIC [26]: 4 µg/mL (≈ 8.1 µM)
5 | O=C(Nc1ccc(Cl)c(C(F)(F)F)c1Cl)c1cc(Cl)ccc1O [BAB160] | – | – | – | – | – | – | – | – | – | – | – | – | – | – | – | – | – | – | – | – | MIC50 (Clostridium perfringens): 8 µg/mL (≈ 20.8 µM)
